Assay results as given in article PMC7708037, “Targeting OGG1 arrests cancer cell proliferation by inducing replication stress” (Nucleic Acids Research, 2020).

Test system: replication fork rate in A3 cells
Experiment: DNA fibre assay
Type: cell-based, human
Details: 10 μM, 48 and 72 h
Protocol: A3 Cells were exposed to either 0.1% DMSO or 10 μM TH5487 for the indicated times, pulse-labeled with 25 μM 5-chloro-2′-deoxyuridine (CldU) for 30 min, washed with medium and pulse-labeled with 250 μM 5-iodo-2′-deoxyuridine (IdU) for 30 min. Alternatively, control or OGG1 shRNA expression was induced with 1 μg/ml doxycyline for 48 h or 96 h before pulse labelling. CldU was detected by incubating acid-treated fiber spreads in Ibidi μ-Slide VI 0.4 (Ibidi, 80606) with rat anti-BrdU monoclonal antibody (AbD Serotec; cat# MCA2060), whereas IdU was detected using mouse anti-BrdU monoclonal antibody (BD Biosciences; cat# 347580) for 1 h at 37°C. […] The lengths of red (AF 555) or green (AF 488) labeled patches were measured using the ImageJ software (National Institutes of Health; http://rsbweb.nih.gov/ij/) and arbitrary length values were converted into micrometers.
Figure 5. […] A3 cells were treated with 20 mM KBrO3 for 1 h or with 10 μM TH5487 for the indicated times, and the amount of genomic 8-oxodG was quantified with LC-MS/MS. […] A3 cells were treated with 10 μM TH5487 for 72 h and strand-breaks and OGG1 substrate lesions were analyzed with the OGG1-modified Comet assay. […] Cells were treated as in B, and the tail moment of the cells were analyzed using blinded automatic analysis (n = 200 per condition from two independent experiments). […] At least 300 forks were scored per condition. […]

With `O=C(Nc1ccc(I)cc1)N1CCC(n2c(=O)[nH]c3c(Br)cccc32)CC1` [TH5487] the Replication fork rate was “marked reduction”.
